29 molecules from patent publication US7504426B2, “Heterocyclic compounds” (Janssen Pharmaceutica N.V., priority 2003, dated 2009) can be followed below.

Test [1] deals with T1, human histamine H4 receptor (Homo sapiens, UniProt Q9H3N8). Kind of test: biochemical.
Test [2] concerns the target T1, human histamine H4 receptor. Kind of test: Binding assay on recombinant human histamine H4 receptor (3H-histamine displacement). The following applies: read-out: Binding Assay Ki; repeated in the chemotaxis table.
In a further test the test system is Mast cells. Kind of test: Mast cell chemotaxis assay (histamine-induced, transwell). In kind it is cell-based. The following applies: 10 μM histamine; HR antagonist 1 μM. The procedure: Mast Cell Chemotaxis Assay
Mast cell accumulation in mucosal epithelia is a well-known characteristic of allergic rhinitis and asthma. Transwells (Costar, Cambridge, Mass.) of a pore size 8 μm were coated with 100 μL of 100 ng/mL human fibronectin (Sigma) for 2 h at room temperature. […] Mast cells (2×10^5/well) were added to the top chamber. The plates were incubated for 3 h at 37° C. Transwells were removed, and the cells in the bottom chamber were counted for sixty seconds using a flow cytometer.

Another test concerns human eosinophils. Kind of test: Inhibition of histamine-induced eosinophil shape change (GAFS). In kind it is cell-based. The following applies: for effect on histamine-induced shape change: human eosinophils. The procedure:
Eosinophil accumulation in sites of allergic reaction is a well-known characteristic of allergic rhinitis and asthma. […] Shape change is a cellular characteristic that precedes eosinophil chemotaxis.
Human granulocytes were isolated from human blood by a Ficoll gradient. The red blood cells were lysed with 5-10X Qiagen lysis buffer at room temperature for 5-7 min. Granulocytes were harvested and washed once with FACS buffer. The cells were resuspended at a density of 2×10^6 cells/mL in reaction buffer. […] Ten minutes later the cells were transferred to ice and fixed with 250 μL of ice-cold fixative buffer (2% formaldehyde) for 1 min.
The change in shape of eosinophils is due to cytoskeletal changes that precede chemotaxis and thus is a measure of chemotaxis.

Where [3] appears, read: histamine 0 μM, HR antagonist 10 μM.
[4] abbreviates: histamine 0.01 μM, HR antagonist 10 μM or none.
[5] abbreviates: histamine 0.1 μM, HR antagonist 10 μM or none.
[6] abbreviates: histamine 1 μM, HR antagonist 10 μM or none.
[7] abbreviates: histamine 10 μM, HR antagonist 10 μM or none.

T1 sequence (Q9H3N8 whole entry): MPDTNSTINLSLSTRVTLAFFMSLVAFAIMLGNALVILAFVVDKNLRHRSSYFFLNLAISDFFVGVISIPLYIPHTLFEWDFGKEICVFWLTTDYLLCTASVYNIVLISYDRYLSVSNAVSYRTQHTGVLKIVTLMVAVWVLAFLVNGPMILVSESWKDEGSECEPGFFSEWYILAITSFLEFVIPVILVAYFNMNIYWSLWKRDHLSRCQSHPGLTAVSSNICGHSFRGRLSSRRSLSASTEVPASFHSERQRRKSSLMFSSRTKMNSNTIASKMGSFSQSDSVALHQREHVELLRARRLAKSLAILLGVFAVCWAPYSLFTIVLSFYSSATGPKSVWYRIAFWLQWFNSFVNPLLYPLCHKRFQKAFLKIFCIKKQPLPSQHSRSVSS

Broadly, the Ki is the dissociation constant of the complex between target and ligand, obtained from inhibition or displacement. Regarding `CN1CCN(C(=O)c2nc3cc(Cl)ccc3[nH]2)CC1` [Example 6, (5-Chloro-1H-benzoimidazol-2-yl)-(4-methyl-piperazin-1-yl)-methanone], the Ki in test [1] and in test [2] was 25 nM each time. For `O=C(c1nc2cc(Cl)ccc2[nH]1)N1CCNCC1` [Example 7, (5-Chloro-1H-benzoimidazol-2-yl)-piperazin-1-yl-methanone], the “% Inh” value in the test on Mast cells came to 8%. The Ki in test [1] and in test [2] was 87 nM throughout.

Consider `CN1CCN(C(=O)c2nc3cc(F)c(F)cc3[nH]2)CC1` [Example 9, (5,6-Difluoro-1H-benzoimidazol-2-yl)-(4-methyl-piperazin-1-yl)-methanone], for which the Ki in test [1] and in test [2] was 28 nM throughout. `Cc1cccc2[nH]c(C(=O)N3CCN(C)CC3)nc12` [Example 22, (4-Methyl-1H-benzoimidazol-2-yl)-(4-methyl-piperazin-1-yl)-methanone] gave a Ki in test [1] of 31 nM. Same read-out and setting: next, `Cc1cccc2[nH]c(C(=O)N3CCNCC3)nc12` [Example 23, (4-Methyl-1H-benzoimidazol-2-yl)-piperazin-1-yl-methanone]: 135 nM. Same read-out and setting: with `Cc1cccc2[nH]c(C(=O)N[C@H]3C[C@H]4CC[C@@H](C3)N4C)nc12` [Example 24, 4-Methyl-1H-benzoimidazole-2-carboxylic acid (8-methyl-8-aza-bicyclo[3.2.1]oct-3-yl)-amide] the figure was 270 nM. `Cc1ccc2[nH]c(C(=O)NC3CC4CCC(C3)N4C)nc2c1` (centres unmarked) [Example 25, 5-Methyl-1H-benzoimidazole-2-carboxylic acid (8-methyl-8-aza-bicyclo[3.2.1]oct-3-yl)-amide]: the Ki in test [1] and in test [2] was 613 nM in each case. In test [1], `Cc1ccc2[nH]c(C(=O)N3CCN(C)CC3)nc2c1` [Example 26, (5-Methyl-1H-benzoimidazol-2-yl)-(4-methyl-piperazin-1-yl)-methanone] showed an inhibitory constant (Ki) of 528 nM. For the molecule `CN1CCN(C(=O)c2nc3cc(C(F)(F)F)ccc3[nH]2)CC1` [Example 27, (4-Methyl-piperazin-1-yl)-(5-trifluoromethyl-1H-benzoimidazol-2-yl)-methanone], affinity in test [1] was put at a Ki of 11 nM.

The molecule `O=C(c1nc2cc(C(F)(F)F)ccc2[nH]1)N1CCNCC1` [Example 28, Piperazin-1-yl-(5-trifluoromethyl-1H-benzoimidazol-2-yl)-methanone] returned a Ki in test [1] of 420 nM. The same measure, in the same setting: with `CN1CCN(C(=O)c2nc3cc(F)ccc3[nH]2)CC1` [Example 29, (5-Fluoro-1H-benzoimidazol-2-yl)-(4-methyl-piperazin-1-yl)-methanone] the figure was 26 nM; with `CCN1CCN(C(=O)c2nc3cc(F)ccc3[nH]2)CC1` [Example 30, (4-Ethyl-piperazin-1-yl)-(5-fluoro-1H-benzoimidazol-2-yl)-methanone], 370 nM; with `O=C(c1nc2cc(F)ccc2[nH]1)N1CCNCC1` [Example 31, (5-Fluoro-1H-benzoimidazol-2-yl)-piperazin-1-yl-methanone], 42 nM. On the same count and under the same terms, next, `CC1CN(C(=O)c2nc3cc(F)ccc3[nH]2)CCN1` (centres unmarked) [Example 32, (5-Fluoro-1H-benzoimidazol-2-yl)-(3-methyl-piperazin-1-yl)-methanone]: 460 nM; `CN1CCN(C(=O)c2nc3cccnc3[nH]2)CC1` [Example 34, (3H-Imidazo[4,5-b]pyridin-2-yl)-(4-methyl-piperazin-1-yl)-methanone]: 833 nM.

As to `CN1CCN(C(=O)c2nc3ccccc3o2)CC1` [Example 35, Benzooxazol-2-yl-(4-methyl-piperazin-1-yl)-methanone], in test [1], the affinity corresponds to a Ki of 620 nM. Still for that read-out and setting: next, `Cc1cccc2nc(C(=O)N3CCN(C)CC3)oc12` [Example 36, (7-Methyl-benzooxazol-2-yl)-(4-methyl-piperazin-1-yl)-methanone]: 1200 nM; `Cc1ccc2oc(C(=O)N3CCN(C)CC3)nc2c1` [Example 37, (5-Methyl-benzooxazol-2-yl)-(4-methyl-piperazin-1-yl)-methanone]: 1300 nM; `Cc1cccc2oc(C(=O)N3CCN(C)CC3)nc12` [Example 38, (4-Methyl-benzooxazol-2-yl)-(4-methyl-piperazin-1-yl)-methanone]: 1600 nM. Turning to `CN1CCN(C(=O)c2nc3ccccc3s2)CC1` [Example 39, Benzothiazol-2-yl-(4-methyl-piperazin-1-yl)-methanone], in test [1], the inhibition constant (Ki) is 810 nM. On the same count and under the same terms, with `CN1CCN(C(=O)c2nc3cc(C(=O)c4ccccc4)ccc3[nH]2)CC1` [Example 40, (5-Benzoyl-1H-benzoimidazol-2-yl)-(4-methyl-piperazin-1-yl)-methanone] the figure was 8000 nM; with `CN1CCN(C(=O)c2nc3c(Cl)cccc3[nH]2)CC1` [Example 41, (4-Chloro-1H-benzoimidazol-2-yl)-(4-methyl-piperazin-1-yl)-methanone], 57 nM; with `CN1CCN(C(=N)c2nc3cc(Cl)ccc3[nH]2)CC1` [Example 45, C-(5-Chloro-1H-benzoimidazol-2-yl)-C-(4-methyl-piperazin-1-yl)-methyleneamine], 110 nM. On the same count and under the same terms, next, `CN1CCN(C(=O)c2nc3c(F)cc(F)cc3[nH]2)CC1` [Example 46, (4,6-Difluoro-1H-benzoimidazol-2-yl)-(4-methyl-piperazin-1-yl)-methanone]: 64 nM. Still for that read-out and setting: with `CN1CCN(C(=O)c2nc3cc([N+](=O)[O-])ccc3[nH]2)CC1` [Example 47, (4-Methyl-piperazin-1-yl)-(5-nitro-1H-benzoimidazol-2-yl)-methanone] the figure was 158 nM. On to `Cc1c(F)ccc2[nH]c(C(=O)N3CCN(C)CC3)nc12` [Example 48, (5-Fluoro-4-methyl-1H-benzoimidazol-2-yl)-(4-methyl-piperazin-1-yl)-methanone], for which affinity in test [1] was put at a Ki of 23 nM. Still for that read-out and setting: next, `CN1CCN(C(=O)c2nc3cc(Br)ccc3[nH]2)CC1` [Example 49, (5-Bromo-1H-benzoimidazol-2-yl)-(4-methyl-piperazin-1-yl)-methanone]: 51 nM. As for `CN(C)CCOC(c1ccccc1)c1ccccc1` [diphenhydramine], the “Fold Change (eosinophil shape change)” value with human eosinophils (setting [3]) was 1.00; in the test on human eosinophils (setting [4]), 1.03; in the test on human eosinophils (setting [5]) it was 1.18; in the test on human eosinophils (setting [6]) it was 1.50; in the test with human eosinophils (setting [7]), 1.63. The “effect on histamine-induced shape change” value with human eosinophils was “did not alter the histamine-induced shape change”. Take `CNC(=C[N+](=O)[O-])NCCSCc1ccc(CN(C)C)o1` [ranatidine]: the “Fold Change (eosinophil shape change)” value turned out to be 1.00 in the test on human eosinophils (setting [3]); 1.04 in the test on human eosinophils (setting [4]); 1.21 in the test on human eosinophils (setting [5]); 1.49 in the test on human eosinophils (setting [6]); 1.64 with human eosinophils (setting [7]). In addition, the “effect on histamine-induced shape change” value in the test on human eosinophils is given as “did not alter the histamine-induced shape change”.
